According to US20190389843A1, “PYRROLE mTORC INHIBITORS AND USES THEREOF” (Navitor Pharmaceuticals, Inc., priority 2016, published 2019):
Counter-ions that a name gives are not always drawn.

Key:
[1] = test system: pAKT in MCF7 (measure of mTORC2 activity); test: AlphaLISA Ultra pAKT assay; format: cell-based; settings: Homo sapiens, MCF7, 2 h, MCF-7 cells, 2 hours compound incubation
How it was run: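 MCF7 cells, 16,000-20,000 per well, treated with compound for 2 h at 0.5% final DMSO, then lysed. Phospho-AKT, as a readout of mTORC2 activity, measured by AlphaLISA Ultra with acceptor beads and then donor beads, 2 h each.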

[2] = test system: pS6K1 in MCF7 (measure of mTORC1 activity); test: AlphaLISA Ultra pS6K1 assay; format: cell-based; settings: Homo sapiens, MCF7, 2 h, MCF-7 cells, 2 hours compound incubation
How it was run: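 MCF7 cells, refreshed medium 2 h, treated with compound 2 h at 0.5% DMSO final, then lysed. Phospho-S6K1 in lysates detected by AlphaLISA Ultra (acceptor beads 2 h, donor beads 2 h), read as Alpha signal on a multimode reader.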

Row | SMILES | IC50 [1] | IC50 [2]
1 | O=C(c1cc(CN2CCN(c3ccccc3Cl)CC2)cn1CC(F)(F)F)N1CCN(c2ccccc2)CC1 [Example I-114, (4-((4-(2-Chlorophenyl)piperazin-1-yl)methyl)-1-(2,2,2-trifluoroethyl)-1H-pyrrol-2-yl)(4-phenylpiperazin-1-yl)methanone trifluoroacetate salt] | > 10000 nM | 1000 to 3000 nM
2 | Cc1c(CN2CCN(c3ccccc3Cl)CC2)cc(C(=O)N2CCN(c3ccc(F)cc3)CC2)n1C [Example I-115, (4-((4-(2-Chlorophenyl)piperazin-1-yl)methyl)-1,5-dimethyl-1H-pyrrol-2-yl)(4-(4-fluorophenyl)piperazin-1-yl)methanone] | > 3000 nM | 10 to 1000 nM
3 | Cc1c(CN2CCN(c3ccccc3Cl)CC2)cc(C(=O)N2CCN(c3ccc(F)c(F)c3)C[C@@H]2C)n1C [Example I-116, (S)-(4-((4-(2-chlorophenyl)piperazin-1-yl)methyl)-1,5-dimethyl-1H-pyrrol-2-yl)(4-(3,4-difluorophenyl)-2-methylpiperazin-1-yl)methanone] | > 1000 nM | 10 to 1000 nM
4 | C[C@H]1CN(c2ccc(F)c(F)c2)CCN1C(=O)c1cc(CN2CCN(c3ccccc3Cl)CC2)cn1C [Example I-117, (S)-(4-((4-(2-chlorophenyl)piperazin-1-yl)methyl)-1-methyl-1H-pyrrol-2-yl)(4-(3,4-difluorophenyl)-2-methylpiperazin-1-yl)methanone] | > 3000 nM | 10 to 1000 nM
5 | Cc1c(CN2CCN(c3ccccc3Cl)CC2)cc(C(=O)N2CCN(c3cccc(Cl)c3)CC2)n1C [Example I-118, (4-(3-Chlorophenyl)piperazin-1-yl)(4-((4-(2-chlorophenyl)piperazin-1-yl)methyl)-1,5-dimethyl-1H-pyrrol-2-yl)methanone] | > 3000 nM | 10 to 1000 nM
6 | Cn1cc(CN2CCN(c3ncccc3Cl)CC2)cc1C(=O)N1CCN(c2ccccc2)CC1 [Example I-119, (4-((4-(3-chloropyridin-2-yl)piperazin-1-yl)methyl)-1-methyl-1H-pyrrol-2-yl)(4-phenylpiperazin-1-yl)methanone] | > 3000 nM | 1000 to 3000 nM
7 | Cc1c(CN2CCN(c3ccccc3Cl)CC2)cc(C(=O)N2CCN(c3cccc(C#N)c3)C[C@@H]2C)n1C [Example I-120, (S)-3-(4-(4-((4-(2-chlorophenyl)piperazin-1-yl)methyl)-1,5-dimethyl-1H-pyrrole-2-carbonyl)-3-methylpiperazin-1-yl)benzonitrile] | > 1000 nM | 10 to 1000 nM
8 | C[C@H]1CN(c2ccccc2C#N)CCN1C(=O)c1cc(CN2CCN(c3ccccc3Cl)CC2)cn1C [Example I-121, (S)-2-(4-(4-((4-(2-chlorophenyl)piperazin-1-yl)methyl)-1-methyl-1H-pyrrole-2-carbonyl)-3-methylpiperazin-1-yl)benzonitrile] | > 1000 nM | 10 to 1000 nM
9 | Cn1cc(CN2CCN(c3ccccc3Cl)CC2)cc1C(=O)N1CCN(c2ccccn2)CC1 [Example I-122] | > 1000 nM | 10 to 1000 nM
10 | C[C@H]1CN(c2cccc(C#N)c2)CCN1C(=O)c1cc(CN2CCN(c3ccccc3Cl)CC2)cn1C [Example I-123, (S)-3-(4-(4-((4-(2-chlorophenyl)piperazin-1-yl)methyl)-1-methyl-1H-pyrrole-2-carbonyl)-3-methylpiperazin-1-yl)benzonitrile] | > 1000 nM | 10 to 1000 nM
11 | Cn1cc(CN2CCN(c3ccccc3C#N)CC2)cc1C(=O)N1CCN(c2ccccc2)CC1 [Example I-124, 2-(4-((1-methyl-5-(4-phenylpiperazine-1-carbonyl)-1H-pyrrol-3-yl)methyl)piperazin-1-yl)benzonitrile] | > 3000 nM | 10 to 1000 nM
12 | Cn1cc(CN2CCN(c3ccccc3C(F)(F)F)CC2)cc1C(=O)N1CCN(c2ccccc2)CC1 [Example I-126, 1-{[1-Methyl-5-(4-phenylpiperazine-1-carbonyl)-1H-pyrrol-3-yl]methyl}-4-[2-(trifluoromethyl)phenyl]piperazine] | > 10000 nM | 3000 to 10000 nM
